rIC50 data for 1 molecule are collected here from ChEMBL document CHEMBL1128112, “The Abu-pocket paradox of the cyclophilin a / cyclosporin a interaction” (1995).

For the experiment, the species on record is Mus musculus. Kind of experiment: Compound was tested in vitro for its immunosuppressive potential using mouse mixed lymphocyte reaction (MLR_M) with relative to Cyclophilin A. Format: functional.

`C/C=C/C[C@@H](C)[C@@H](O)[C@H]1C(=O)N[C@@H](C(O)Cc2ccccc2)C(=O)N(C)CC(=O)N(C)[C@@H](CC(C)C)C(=O)N[C@@H](C(C)C)C(=O)N(C)[C@@H](CC(C)C)C(=O)N[C@@H](C)C(=O)N[C@H](C)C(=O)N(C)[C@@H](CC(C)C)C(=O)N(C)[C@@H](CC(C)C)C(=O)N(C)[C@@H](C(C)C)C(=O)N1C` (stereo partly specified) showed a rIC50 of 360.
